The values that follow come from patent US20200270588A1, “GLUCOSYL TRANSFERASE POLYPEPTIDES AND METHODS OF USE” (Syngenta Participations AG, priority 2017, published 2020).

What all share (assay type): biochemical
In experiment [1] the target is T1, SEQ ID NO 21, mutant of Zea mays bx9 glucosyl transferase (Zea mays, UniProt B4G072, A334K/F21Y/L194V/M279F/S117V).
T1 construct: His tag (C); made in house
In words: UDP-Glo glucosyl transferase assay, purified enzyme. To be noted: lower block, concentration printed only in upper block: V 0.300, VII 0.210; IV, VIII, XI, XXI, XX, XVIII, XVI, XV, XIV 0.200; others 1.000 mM. As for the experimental part: (§1) Glucosyl transferase activity is assayed via measurement of acceptor substrate-dependent production of UDP from ultrapure UDP-glucose using the Promega UDP-Glo™ method and according to the manufacturer's instructions. Assays are run in 96 well microtiter plates.
(§2) Enzyme, typically at a stock concentration of ˜2 mg/ml is diluted to an appropriate concentration in 50 mM K^+ Hepes buffer at pH7.5 containing 0.5 mg/mL bovine serum albumin (BSA) and 5 ul aliquots of this diluted enzyme added to each well of a Perkin Elmer white ½ area 96 well plate. […] Assays are run for an appropriate time (usually 10 to 60 min) so that the amount of UDP formed lies within the most nearly linear part of the UDP standard curve and are stopped with the addition and mixing of 25 ul UDP-Glo™ detection reagent (prepared as described below). Plates are then incubated at room temperature for 60 minutes and then read in a luminescence plate reader (Perkin Elmer Envision 2130 Multilabel Reader). A UDP standard curve is run alongside each set of assays and reagent blank control assays run with DMSO in place of test herbicide. Typically, 300 pmol of UDP corresponds to a Relative Luminescence Unit (RLU) reading of about 1.5E7 and the response curve between 0 and 600 pmol is fitted to a polynomial function (see for example FIG. 2).
(§3) The UDP-Glo™ reagents are made up and used according to the manufacturer's instructions. Thus, Nucleotide Detection Buffer and ATP are combined to make nucleotide detection reagent (NDR) dispensed into aliquots and frozen to be freshly thawed before use.
(§4) Km and kcat values in respect of UDP-glucose are derived by carrying out experiments to measure initial rates over a suitable range of concentrations of UDP glucose out at a fixed near saturating concentration of acceptor substrate. Best fit values of kcat, Km and kcat/Km are obtained by direct fitting of the data to the Michaelis-Menten equation using Graphpad Prism™ software.
(§5) Variants of C-terminally his tagged SEQ ID No:1 (w/t bx9 from Zea mays), exemplified as SEQ ID 16-30, were cloned, purified and assayed as described in Example 1. FIG. 4 depicts the data from some experiments to determine the kinetic parameters of some of these variants in respect of herbicide VI and table 12 summarizes the estimates of kinetic parameters obtained from further such experiments in respect of a range of herbicides.
(§6) Table 13 summarizes the results obtained from assays, run as described in Example 1, using a variety of alcohol and aminal PSII herbicides as substrates of the Zea mays bx9 w/t (i.e. C-terminally his tagged SEQ ID no 1) and various mutants of the same, selected from SEQ ID NO: 16-30). All of these proteins were C-terminally his-tagged, expressed and purified as described in Example 1. Assays were run and analyzed as described in example 1. It is seen that various of the mutations herein and combinations thereof led to significant improvements (over the w/t bx9 protein) in catalytic activity versus various of the herbicides and that these improvements are often of sufficient magnitude to be useful for conferring improved herbicide tolerance upon crop. This is especially the case given that even the unmutated w/t bx9 enzyme which has only modest glucosyl transferase activity (for example against compounds V and VI) was nevertheless adequately active to confer significant herbicide tolerance in the glass house (as shown in example 9) even without mutational improvement. It is also seen that particular mutations can lead to very much improved activity in respect of some chemistries but not to others but that, overall, there is at least one variant within the scope of the current invention that provides significant and useful improvement in tolerance to each of the chemistries tested.

Experiment [2] deals with T2, SEQ ID NO 17, zmBX9 S117V, M279F, A334K mutant (Zea mays, UniProt B4G072, A334K/M279F/S117V).
T2 construct: polypeptides were the C-terminally his-tagged; His tag (C); made in house
Described as above. To be noted: herbicide mM: V 0.300, VI 0.250, VII 0.210; IV, VIII, XI, XXI, XX, XVIII, XVI, XV, XIV 0.200; others 1.000. The procedure:
as §1, §2, §3, §4, §5, §6

For experiment [3], the target named is T3, SEQ ID NO 22, mutant of Zea mays bx9 glucosyl transferase (Zea mays, UniProt B4G072, A334K/F21Y/M279F/S117V/T220P).
T3 construct: His tag (C); made in house
The experiment is described as above. To be noted: lower block, concentration printed only in upper block: V 0.300, VII 0.210; IV, VIII, XI, XXI, XX, XVIII, XVI, XV, XIV 0.200; others 1.000 mM. As for the experimental part: as §1, §2, §3, §4, §5, §6

The target in experiment [4] is T4, Zea mays bx9 glucosyl transferase (C-terminally his tagged SEQ ID NO: 1) (Zea mays, UniProt B4G072).
T4 construct: His tag (C); made in house; host or cells: E. coli BL21 (DE3), pET24a
T4 sequence (B4G072 1-462): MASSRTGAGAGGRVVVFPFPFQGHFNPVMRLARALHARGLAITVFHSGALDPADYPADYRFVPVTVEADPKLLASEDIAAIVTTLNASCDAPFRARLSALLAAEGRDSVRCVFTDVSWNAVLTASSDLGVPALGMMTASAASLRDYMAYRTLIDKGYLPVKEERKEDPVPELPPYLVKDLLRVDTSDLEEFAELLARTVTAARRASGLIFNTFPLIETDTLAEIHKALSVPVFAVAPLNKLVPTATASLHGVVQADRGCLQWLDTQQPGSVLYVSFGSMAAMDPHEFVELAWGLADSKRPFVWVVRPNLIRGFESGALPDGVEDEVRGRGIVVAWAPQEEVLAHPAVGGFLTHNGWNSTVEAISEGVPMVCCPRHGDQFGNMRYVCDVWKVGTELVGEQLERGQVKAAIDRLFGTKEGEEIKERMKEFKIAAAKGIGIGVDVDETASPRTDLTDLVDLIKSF
The description is as above. To be noted: for Activity: herbicide mM: V 0.300, VI 0.250, VII 0.210, IV, VIII, XI, XXI, XX, XVIII, XVI, XV, XIV 0.200, others 1.000. The procedure: as §1, §2, §3, §4

Experiment [5] addresses T5, SEQ ID NO 23, mutant of Zea mays bx9 glucosyl transferase (Zea mays, UniProt B4G072, A334K/F21Y/L194C/M279F/S117V).
T5 construct: His tag (C); made in house
Described as above. To be noted: lower block, concentration printed only in upper block: V 0.300, VII 0.210; IV, VIII, XI, XXI, XX, XVIII, XVI, XV, XIV 0.200; others 1.000 mM. The procedure:
as §1, §2
(§7) The UDP-Glo™ reagents are made up and used according to the manufacturer's instructions. Thus, Nucleotide Detection Buffer and ATP are combined to make nucleotide detection reagent (NDR) dispensed into aliquots and frozen to be freshly thawed before use. […]
as §6

The target in experiment [6] is T6, SEQ ID NO 18, mutant of Zea mays bx9 glucosyl transferase (Zea mays, UniProt B4G072, A281K/A334K/F21Y/M279F/S117V).
T6 construct: His tag (C); made in house
The description is as above. The conditions noted are these: herbicide mM: V 0.300, VI 0.250, VII 0.210; IV, VIII, XI, XXI, XX, XVIII, XVI, XV, XIV 0.200; others 1.000. The procedure:
as §1, §2, §7, §6

In experiment [7] the target is T7, SEQ ID NO 19, mutant of Zea mays bx9 glucosyl transferase (Zea mays, UniProt B4G072, A281K/A334K/L194V/M279F/S117V).
T7 construct: His tag (C); made in house
The description is as above. To be noted: herbicide mM: V 0.300, VI 0.250, VII 0.210; IV, VIII, XI, XXI, XX, XVIII, XVI, XV, XIV 0.200; others 1.000. The procedure:
as §1, §2, §7, §6

Experiment [8] concerns the target T8, SEQ ID NO 20, mutant of Zea mays bx9 glucosyl transferase (Zea mays, UniProt B4G072, A281K/A334K/F21Y/L194V/M279F/S117V).
T8 construct: His tag (C); made in house
To be noted: lower block, concentration printed only in upper block: V 0.300, VII 0.210; IV, VIII, XI, XXI, XX, XVIII, XVI, XV, XIV 0.200; others 1.000 mM. As for the experimental part:
as §1
as §2, with “herbicide.” for “herbicide. Typically, 300 pmol of UDP corresponds to a Relative Luminescence Unit (RLU) reading of about 1.5E7 and the response curve between 0 and 600 pmol is fitted to a polynomial function (see for example FIG. 2).”
as §3, §4
All of these proteins were C-terminally his-tagged, expressed and purified as described in Example 1. Assays were run and analyzed as described in example 1.

Each structure is given as a SMILES string.

For `CN1CC(O)N(c2cc(C(C)(C)C)on2)C1=O` (centres unmarked) [XXII], the Activity in experiment [1] was determined as 0.015 pmol/sec/pmol enzyme; in experiment [2], 0.023 pmol/sec/pmol enzyme; in experiment [3], 0.101 pmol/sec/pmol enzyme; in experiment [4] it was 0.000 pmol/sec/pmol enzyme; in experiment [5], 0.020 pmol/sec/pmol enzyme; in experiment [6] it was 0.186 pmol/sec/pmol enzyme. In addition, the Activity was 0.080 pmol/sec/pmol enzyme in experiment [7] and 0.120 pmol/sec/pmol enzyme in experiment [8].

Consider `CON1C(=O)N(c2cc(C(F)(F)F)c(C)cn2)C(O)[C@@H]1C` (some centres unmarked) [XV], for which the Activity in experiment [1] was 1.711 pmol/sec/pmol enzyme; in experiment [2], 0.833 pmol/sec/pmol enzyme; in experiment [3], 1.530 pmol/sec/pmol enzyme; in experiment [5], 1.641 pmol/sec/pmol enzyme; in experiment [7] it was 1.391 pmol/sec/pmol enzyme.

Consider `CN1CC(O)N(c2cc(C(C)(C)C)ncn2)C1=O` (centres unmarked) [IV], for which the Activity is reported as 0.008 pmol/sec/pmol enzyme in experiment [1]; 0.019 pmol/sec/pmol enzyme in experiment [2]; 0.099 pmol/sec/pmol enzyme in experiment [3]; 0.000 pmol/sec/pmol enzyme in experiment [4]; 0.023 pmol/sec/pmol enzyme in experiment [5]; 0.145 pmol/sec/pmol enzyme in experiment [6]. Also, the Activity in experiment [7] stood at 0.053 pmol/sec/pmol enzyme; in experiment [8], 0.079 pmol/sec/pmol enzyme.

For the compound `Cc1cnc(N2C(=O)N(C)C(C)C2O)cc1C(F)(F)F` (centres unmarked) [XX], the Activity is recorded as 0.338 pmol/sec/pmol enzyme in experiment [1]; 0.244 pmol/sec/pmol enzyme in experiment [2]; 0.563 pmol/sec/pmol enzyme in experiment [3]; −0.001 pmol/sec/pmol enzyme in experiment [4]; 0.249 pmol/sec/pmol enzyme in experiment [5]; 0.751 pmol/sec/pmol enzyme in experiment [6]. Also, the Activity in experiment [7] is recorded as 0.662 pmol/sec/pmol enzyme; in experiment [8] it was 0.698 pmol/sec/pmol enzyme.

As a reminder, the kcat is the maximal rate divided by the concentration of active sites. Regarding `CON1C(=O)N(c2cc(C(F)(F)F)c(Cl)cn2)C(O)C1C` (centres unmarked) [XXI], the Activity in experiment [1] is recorded as 1.827 pmol/sec/pmol enzyme; in experiment [2] it was 0.919 pmol/sec/pmol enzyme; in experiment [3], 1.714 pmol/sec/pmol enzyme; in experiment [4], 0.000 pmol/sec/pmol enzyme; in experiment [5], 1.746 pmol/sec/pmol enzyme; in experiment [6], 1.524 pmol/sec/pmol enzyme. Further, the Activity in experiment [7] is 1.534 pmol/sec/pmol enzyme; in experiment [8] it was 1.457 pmol/sec/pmol enzyme. Moreover, the kcat in experiment [4] (0.5 mM UDP-glucose, 25 C, pH 7.5, DMSO reagent blank as control) stood at 0.0001 s⁻¹.

Take `C[C@H]1C(=O)N(c2noc(C(C)(C)C)c2C#N)C(O)[C@@H]1C` (some centres unmarked) [XXIII]: the Activity is listed as 0.034 pmol/sec/pmol enzyme in experiment [1]; 0.014 pmol/sec/pmol enzyme in experiment [2]; 0.067 pmol/sec/pmol enzyme in experiment [3]; −0.003 pmol/sec/pmol enzyme in experiment [4]; 0.021 pmol/sec/pmol enzyme in experiment [5]; 0.089 pmol/sec/pmol enzyme in experiment [6]. In addition, the Activity was 0.072 pmol/sec/pmol enzyme in experiment [7] and 0.119 pmol/sec/pmol enzyme in experiment [8].

On to `C[C@@H]1C(O)N(c2cc(C(C)(C)C)on2)C(=O)[C@@H]1C` (some centres unmarked) [VIII], for which the Activity in experiment [1] was 0.016 pmol/sec/pmol enzyme; in experiment [2], 0.008 pmol/sec/pmol enzyme; in experiment [3], 0.061 pmol/sec/pmol enzyme; in experiment [4], −0.002 pmol/sec/pmol enzyme; in experiment [5], 0.017 pmol/sec/pmol enzyme; in experiment [6], 0.124 pmol/sec/pmol enzyme. Further, the Activity is on record as 0.077 pmol/sec/pmol enzyme in experiment [7] and 0.145 pmol/sec/pmol enzyme in experiment [8].

As for `C[C@H]1C(O)N(c2cc(C(F)(F)F)ccn2)C(=O)N1C` (some centres unmarked) [XXIV], the Activity in experiment [1] stood at 1.154 pmol/sec/pmol enzyme; in experiment [2] it was 0.528 pmol/sec/pmol enzyme; in experiment [3] it was 0.908 pmol/sec/pmol enzyme; in experiment [4] it was 0.001 pmol/sec/pmol enzyme; in experiment [5] it was 0.816 pmol/sec/pmol enzyme; in experiment [6], 0.982 pmol/sec/pmol enzyme. Further, the Activity was 1.358 pmol/sec/pmol enzyme in experiment [7] and 1.462 pmol/sec/pmol enzyme in experiment [8].
